Measured values published in BigSolDB 2.1.

Sc1nc2ccccc2[nH]1
solubility (mole fraction)
Conditions	283.15 K	288.15 K	293.15 K	298.15 K	303.15 K	308.15 K	313.15 K	318.15 K	323.15 K
in 2-butoxyethanol	0.0459	0.0463	0.0469	0.0475	0.0484	0.0491	0.0498	0.0507	0.0515
in 2-ethoxyethanol	0.0577	0.0583	0.059	0.0599	0.0607	0.0615	0.0623	0.0634	0.0646
in 2-methoxyethanol	0.0682	0.0691	0.0703	0.0717	0.0729	0.0742	0.0758	0.0775	0.0793
in 2-propoxyethanol	0.0497	0.0502	0.0506	0.0511	0.0519	0.0526	0.0535	0.0545	0.0555
in MIBK	0.00859	0.00884	0.00913	0.00945	0.00983	0.0102	0.0106	0.011	0.0114
in ethyl formate	0.00169	0.0018	0.00197	0.00211	0.00228	0.0025	0.00273	0.003	0.00323
in ethylene glycol	0.0137	0.0147	0.0162	0.0175	0.0193	0.0206	0.022	0.0238	0.0254
in isobutanol	0.00371	0.0046	0.00556	0.00638	0.00724	0.00813	0.0092	0.0103	0.0114
in isopropyl acetate	0.00245	0.00255	0.00272	0.00283	0.00303	0.00318	0.00337	0.00364	0.00397
in n-butyl acetate	0.00529	0.00538	0.00551	0.00564	0.00577	0.00597	0.00614	0.00637	0.00662
in sec-butanol	0.00591	0.00729	0.00851	0.00972	0.011	0.0126	0.014	0.0159	0.0177
